Assay results reported in PubChem BioAssay (NCI).
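Where inhibition never reached the appropriate level, the endpoint shown equals the highest concentration tested. Otherwise, values were interpolated linearly from a five-concentration, 48-hour dose response in 96-well plates. TGI is the concentration that stops growth completely.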

Tests used:
Experiment in all cases: NCI tumour cell line growth inhibition, 48 h
[1] = test system: UACC-257 melanoma
[2] = test system: HT29 colon
[3] = test system: LOX IMVI melanoma
[4] = test system: HS 578T breast
[5] = test system: HOP-62 NSCLC
[6] = test system: SW-620 colon
[7] = test system: SK-MEL-5 melanoma
[8] = test system: NCI-H226 lung
[9] = test system: SF-268 CNS
[10] = test system: OVCAR-4 ovarian
[11] = test system: NCI-H23 lung
[12] = test system: HL-60(TB) leukemia
[13] = test system: SK-OV-3 ovarian
[14] = test system: DU-145 prostate
[15] = test system: RXF 393 renal
[16] = test system: U251 CNS
[17] = test system: NCI/ADR-RES ovarian
[18] = test system: ACHN renal
[19] = test system: SF-295 CNS
[20] = test system: OVCAR-5 ovarian
[21] = test system: MDA-N
[22] = test system: BT-549 breast
[23] = test system: CCRF-CEM leukemia
[24] = test system: SK-MEL-2 melanoma
[25] = test system: IGROV1 ovarian
[26] = test system: OVCAR-3 ovarian
[27] = test system: 786-0 renal
[28] = test system: SNB-19 CNS
[29] = test system: UO-31 renal
[30] = test system: SF-539 CNS
[31] = test system: SN12C renal
[32] = test system: M14 melanoma
[33] = test system: KM12 colon
[34] = test system: TK-10 renal
[35] = test system: NCI-H460 lung
[36] = test system: MCF7 breast
[37] = test system: SK-MEL-28 melanoma
[38] = test system: OVCAR-8 ovarian
[39] = test system: COLO 205 colon
[40] = test system: NCI-H522 lung
[41] = test system: MDA-MB-231 breast
[42] = test system: EKVX NSCLC
[43] = test system: HOP-92 NSCLC
[44] = test system: HCT-15 colon
[45] = test system: CAKI-1 renal
[46] = test system: PC-3 prostate
[47] = test system: MDA-MB-435
[48] = test system: MOLT-4 leukemia
[49] = test system: HCC-2998 colon
[50] = test system: UACC-62 melanoma
[51] = test system: A549 NSCLC
[52] = test system: SNB-75 CNS
[53] = test system: HCT-116 colon
[54] = test system: RPMI-8226 leukemia
[55] = test system: K-562 leukemia
[56] = test system: T-47D breast
[57] = test system: MALME-3M melanoma
[58] = test system: SR leukemia
[59] = test system: A498 renal

For `Cc1cc(Br)cc(C)c1NC(=O)C(=O)C1C(=O)C(CC2C(=O)c3ccccc3C2=O)C(=O)CC1(C)C` (stereo not given), the TGI [1] was > 100 µM, the TGI [2] was > 100 µM and the TGI [3] was > 100 µM. The TGI [4] was > 100 µM, the TGI [5] was > 100 µM and the TGI [6] was > 100 µM. The TGI [7] was > 100 µM, the TGI [8] was > 100 µM and the TGI [9] was > 100 µM. For the same molecule, the TGI [10] was > 100 µM, the TGI [11] was > 100 µM and the TGI [12] was > 100 µM. The TGI [13] was > 100 µM, the TGI [14] was > 100 µM and the TGI [15] was > 100 µM. The TGI [16] was > 100 µM, the TGI [17] was > 100 µM and the TGI [18] was > 100 µM. The TGI [19] was > 100 µM, the TGI [20] was > 100 µM and the TGI [21] was > 100 µM. The TGI [22] was > 100 µM, the TGI [23] was 95.7 µM and the TGI [24] was > 100 µM. For the same molecule, the TGI [25] was > 100 µM, the TGI [26] was > 100 µM and the TGI [27] was > 100 µM. The TGI [28] was > 100 µM, the TGI [29] was 92.7 µM and the TGI [30] was > 100 µM. The TGI [31] was > 100 µM, the TGI [32] was > 100 µM and the TGI [33] was > 100 µM. For the same molecule, the TGI [34] was > 100 µM, the TGI [35] was > 100 µM and the TGI [36] was > 100 µM. For the same molecule, the TGI [37] was > 100 µM, the TGI [38] was > 100 µM and the TGI [39] was > 100 µM. For the same molecule, the TGI [40] was > 100 µM, the TGI [41] was > 100 µM and the TGI [42] was > 100 µM. For the same molecule, the TGI [43] was > 100 µM, the TGI [44] was > 100 µM and the TGI [45] was > 100 µM. The TGI [46] was > 100 µM, the TGI [47] was > 100 µM and the TGI [48] was 74.5 µM. The TGI [49] was > 100 µM, the TGI [50] was > 100 µM and the TGI [51] was > 100 µM. For the same molecule, the TGI [52] was > 100 µM and the TGI [53] was > 100 µM.

In the case of `CC(C)(C)OC(=O)N/N=C(/N)c1ccccc1`, the TGI [54] is reported as > 100 µM, the TGI [55] is reported as > 100 µM and the TGI [1] is reported as > 100 µM. The TGI [2] was > 100 µM, the TGI [3] was > 100 µM and the TGI [5] was > 100 µM. For the same molecule, the TGI [7] was > 100 µM, the TGI [8] was > 100 µM and the TGI [9] was > 100 µM. The TGI [10] was > 100 µM, the TGI [56] was > 100 µM and the TGI [11] was > 100 µM. For the same molecule, the TGI [12] was > 100 µM, the TGI [57] was > 100 µM and the TGI [13] was > 100 µM. For the same molecule, the TGI [14] was > 100 µM, the TGI [15] was > 100 µM and the TGI [16] was > 100 µM. The TGI [17] was > 100 µM, the TGI [18] was > 100 µM and the TGI [19] was > 100 µM. The TGI [20] was > 100 µM, the TGI [21] was > 100 µM and the TGI [22] was > 100 µM. For the same molecule, the TGI [23] was > 100 µM, the TGI [24] was > 100 µM and the TGI [25] was > 100 µM. For the same molecule, the TGI [26] was > 100 µM, the TGI [27] was > 100 µM and the TGI [28] was > 100 µM. For the same molecule, the TGI [29] was > 100 µM, the TGI [30] was > 100 µM and the TGI [31] was > 100 µM. The TGI [32] was > 100 µM, the TGI [33] was > 100 µM and the TGI [34] was > 100 µM. For the same molecule, the TGI [35] was > 100 µM, the TGI [36] was > 100 µM and the TGI [37] was > 100 µM. For the same molecule, the TGI [38] was > 100 µM, the TGI [39] was > 100 µM and the TGI [40] was > 100 µM. The TGI [41] was > 100 µM, the TGI [42] was > 100 µM and the TGI [44] was > 100 µM. For the same molecule, the TGI [45] was > 100 µM, the TGI [46] was > 100 µM and the TGI [47] was > 100 µM. The TGI [48] was > 100 µM, the TGI [49] was > 100 µM and the TGI [50] was > 100 µM. The TGI [51] was > 100 µM, the TGI [52] was > 100 µM and the TGI [53] was > 100 µM.

In the case of `COC(=O)CCc1ccc2c(c1)CC1(C2)Cc2ccc3c(c2C1)CCC3` (stereo not given), the TGI [54] is reported as > 100 µM, the TGI [55] is reported as > 100 µM and the TGI [1] is reported as > 100 µM. The TGI [2] was > 100 µM, the TGI [3] was > 100 µM and the TGI [4] was > 100 µM. For the same molecule, the TGI [5] was > 100 µM, the TGI [6] was > 100 µM and the TGI [7] was 90.9 µM. The TGI [8] was > 100 µM, the TGI [9] was > 100 µM and the TGI [10] was > 100 µM. For the same molecule, the TGI [56] was > 100 µM, the TGI [11] was > 100 µM and the TGI [12] was > 100 µM. The TGI [57] was > 100 µM, the TGI [13] was > 100 µM and the TGI [14] was > 100 µM. For the same molecule, the TGI [15] was > 100 µM, the TGI [16] was > 100 µM and the TGI [17] was > 100 µM. For the same molecule, the TGI [18] was > 100 µM, the TGI [19] was > 100 µM and the TGI [21] was > 100 µM. The TGI [23] was > 100 µM, the TGI [25] was > 100 µM and the TGI [26] was > 100 µM. The TGI [27] was > 100 µM, the TGI [58] was > 100 µM and the TGI [28] was > 100 µM. For the same molecule, the TGI [29] was 67.5 µM, the TGI [30] was > 100 µM and the TGI [31] was > 100 µM. The TGI [32] was > 100 µM, the TGI [33] was > 100 µM and the TGI [34] was > 100 µM. For the same molecule, the TGI [59] was > 100 µM, the TGI [35] was > 100 µM and the TGI [36] was > 100 µM. The TGI [37] was > 100 µM, the TGI [38] was > 100 µM and the TGI [39] was > 100 µM. For the same molecule, the TGI [40] was > 100 µM, the TGI [41] was > 100 µM and the TGI [42] was > 100 µM. For the same molecule, the TGI [43] was > 100 µM, the TGI [44] was > 100 µM and the TGI [46] was > 100 µM. For the same molecule, the TGI [47] was > 100 µM, the TGI [48] was > 100 µM and the TGI [49] was > 100 µM. For the same molecule, the TGI [50] was > 100 µM, the TGI [51] was > 100 µM and the TGI [52] was > 100 µM. The TGI [53] was > 100 µM.

In the case of `Nc1cnc2c(c1)c(=O)nc1n2CCS1`, the TGI [54] is reported as > 100 µM, the TGI [55] is reported as > 100 µM and the TGI [1] is reported as > 100 µM. For the same molecule, the TGI [2] was > 100 µM, the TGI [3] was > 100 µM and the TGI [5] was > 100 µM. For the same molecule, the TGI [6] was > 100 µM, the TGI [7] was > 100 µM and the TGI [8] was > 100 µM. The TGI [9] was > 100 µM, the TGI [10] was > 100 µM and the TGI [11] was > 100 µM. The TGI [12] was > 100 µM, the TGI [57] was > 100 µM and the TGI [13] was > 100 µM. The TGI [14] was > 100 µM, the TGI [15] was > 100 µM and the TGI [16] was > 100 µM. For the same molecule, the TGI [17] was > 100 µM, the TGI [18] was > 100 µM and the TGI [19] was > 100 µM. For the same molecule, the TGI [20] was > 100 µM, the TGI [21] was > 100 µM and the TGI [22] was > 100 µM. The TGI [23] was > 100 µM, the TGI [24] was > 100 µM and the TGI [26] was > 100 µM. For the same molecule, the TGI [27] was > 100 µM, the TGI [28] was > 100 µM and the TGI [29] was > 100 µM. For the same molecule, the TGI [30] was > 100 µM, the TGI [31] was > 100 µM and the TGI [33] was > 100 µM. The TGI [34] was > 100 µM, the TGI [59] was > 100 µM and the TGI [35] was > 100 µM. For the same molecule, the TGI [36] was > 100 µM, the TGI [37] was > 100 µM and the TGI [38] was > 100 µM. The TGI [39] was > 100 µM, the TGI [41] was > 100 µM and the TGI [42] was > 100 µM. The TGI [43] was > 100 µM, the TGI [44] was > 100 µM and the TGI [45] was > 100 µM. For the same molecule, the TGI [46] was > 100 µM, the TGI [47] was > 100 µM and the TGI [48] was > 100 µM. The TGI [49] was > 100 µM, the TGI [50] was > 100 µM and the TGI [51] was > 100 µM. For the same molecule, the TGI [52] was > 100 µM and the TGI [53] was > 100 µM.
